From ChEMBL document CHEMBL1151001, “Nonpeptide angiotensin II receptor antagonists: the discovery of DMP 581 and DMP 811” (Bioorg Med Chem Lett, 1994)

How the values were obtained:
[1] = system: Rattus norvegicus; test: Antihypertensive potency expressed as effective dose (iv) that lowers the mean arterial blood pressure by 30 mm Hg in renal hypertensive rats.; format: functional; settings: Artery
[2] = species: Rattus norvegicus; test: Oral antihypertensive potency expressed as effective dose that lowers the mean arterial blood pressure by 30 mm Hg in renal hypertensive rats; format: functional
[3] = Oral bioavailability; format: ADME, organism-based, Canis lupus familiaris; settings: dog, in vivo
[4] = Oral bioavailability in dog (dosed as neat powder in hard gelatin capsule); format: ADME, organism-based, Canis lupus familiaris; settings: in vivo

SMILES	ED30 [2] [mg/kg]	other results
CCCCc1nc(Cl)c(CO)n1Cc1ccc(-c2ccccc2-c2nnn[nH]2)cc1 [LOSARTAN]	0.59	ED30 [1]: 0.8 mg/kg
CCCc1nc(CC)c(C=O)n1Cc1ccc(-c2ccccc2-c2nnn[nH]2)cc1	0.027	bioavailability [3]: ~100%; bioavailability [4]: 70%; ED30 [1]: 0.11 mg/kg
CCCc1nc(C(C)C)c(C(=O)O)n1Cc1ccc(-c2ccccc2-c2nn[nH]n2)cc1	0.11	–
CCCc1nc(CC)c(C(=O)OCc2oc(=O)oc2C)n1Cc1ccc(-c2ccccc2-c2nn[nH]n2)cc1	0.1	–
CCCc1nc(CC)c(C(=O)OCOC(=O)OC(C)(C)C)n1Cc1ccc(-c2ccccc2-c2nn[nH]n2)cc1	0.02	–
CCCCc1nc(Cl)c(C(=O)O)n1Cc1ccc(-c2ccccc2-c2nn[nH]n2)cc1 [CARBOXYLIC ACID METABOLITE]	0.66	ED30 [1]: 0.038 mg/kg
CCCCc1nc(CCC)n(Cc2ccc(-c3ccccc3-c3nn[nH]n3)cc2)c1C(=O)O	1.3	–
CCCCc1nc(CCC)n(Cc2ccc(-c3ccccc3-c3nn[nH]n3)cc2)c1C=O	1	–
CCCc1nc(C(F)(F)C(F)(F)F)c(C(=O)O)n1Cc1ccc(-c2ccccc2-c2nnn[nH]2)cc1	0.21	bioavailability [4]: 12%; ED30 [1]: 0.042 mg/kg
CCCc1nc(C(C)C)c(C=O)n1Cc1ccc(-c2ccccc2-c2nn[nH]n2)cc1	0.13	–
CCCc1nc(CC)c(C(=O)O)n1Cc1ccc(-c2ccccc2-c2nnn[nH]2)cc1	0.03	bioavailability [3]: 15%; ED30 [1]: 0.005 mg/kg
CCCc1nc(CC)c(C(=O)OC(C)OC(=O)OC(C)(C)C)n1Cc1ccc(-c2ccccc2-c2nn[nH]n2)cc1 (configuration not stated)	0.3	–
CCCc1nc(C)c(C(=O)O)n1Cc1ccc(-c2ccccc2-c2nn[nH]n2)cc1	0.19	–
CCCc1nc(CC)c(C(=O)OCc2oc(=O)oc2C(C)(C)C)n1Cc1ccc(-c2ccccc2-c2nn[nH]n2)cc1	0.1	–
CCCc1nc(C(C)(C)C)c(C=O)n1Cc1ccc(-c2ccccc2-c2nn[nH]n2)cc1	0.048	–
CCCc1nc(C)c(C=O)n1Cc1ccc(-c2ccccc2-c2nn[nH]n2)cc1	0.1	–
CCCc1nc(CC)c(C(=O)OCOC(=O)C(C)C)n1Cc1ccc(-c2ccccc2-c2nn[nH]n2)cc1	0.03	–
CCCc1nc(CCC)n(Cc2ccc(-c3ccccc3-c3nn[nH]n3)cc2)c1C=O	0.3	–
CCCc1nc(C(C)(C)C)c(C(=O)O)n1Cc1ccc(-c2ccccc2-c2nn[nH]n2)cc1	0.35	–
CCCc1nc(CCC)n(Cc2ccc(-c3ccccc3-c3nn[nH]n3)cc2)c1C(=O)O	0.63	–
CCCc1nc(CC)c(C(=O)OCOC(=O)C(C)(C)C)n1Cc1ccc(-c2ccccc2-c2nn[nH]n2)cc1	0.03	–
CCCc1nc(CC)c(C(=O)OCOC(=O)OC)n1Cc1ccc(-c2ccccc2-c2nn[nH]n2)cc1	0.03	–
CCCc1nc(CC)c(C(=O)OC(C)OC(=O)OC)n1Cc1ccc(-c2ccccc2-c2nn[nH]n2)cc1 (configuration not stated)	0.02	–
CCCc1nc(CC(C)C)c(C=O)n1Cc1ccc(-c2ccccc2-c2nn[nH]n2)cc1	0.29	–
CCCc1nc(CC(C)C)c(C(=O)O)n1Cc1ccc(-c2ccccc2-c2nn[nH]n2)cc1	0.87	–
CCCc1nc(C(C)CC)c(C(=O)O)n1Cc1ccc(-c2ccccc2-c2nn[nH]n2)cc1 (configuration not stated)	0.46	–
CCCc1nc(CC)c(C(=O)OCc2oc(=O)oc2-c2ccccc2)n1Cc1ccc(-c2ccccc2-c2nn[nH]n2)cc1	0.3	–
CCCc1nc(C(C)CC)c(C=O)n1Cc1ccc(-c2ccccc2-c2nn[nH]n2)cc1 (configuration not stated)	0.33	–
